Measured values from ChEMBL document CHEMBL5335777 (Eur J Med Chem, 2023).
Active and inactive are the calls of the source. The calls are words filed in the database; no cut-off is given here.

Tests used:
[1] = Cytotoxicity against human CCD-986Sk cells assessed as inhibition of cell growth incubated for 72 hrs by MTT assay; type: toxicity, cell-based
NCI-H1792 [2] = assay: Antiproliferative activity against human NCI-H1792 cells harboring KRAS G12C mutant assessed as reduction in cell viability at 2.5 uM incubated for 72 hrs by MTT assay; type: functional, cell-based
NCI-H358 = assay: Antiproliferative activity against human NCI-H358 cells harboring heterozygous KRAS G12C mutant assessed as inhibition of cell growth incubated for 72 hrs by MTT assay; type: functional, cell-based; conditions: NCI-H358, 72 h
[3] = Volume of distribution in NOD-SCID mouse at 15 mg/kg, ip administered as single dose and measured upto 48 hrs by HPLC/MS analysis; type: ADME, organism-based; conditions: in vivo
MIA PaCa-2 = assay: Antiproliferative activity against human MIA PaCa-2 cells harboring homozygous KRAS G12C mutant assessed as inhibition of cell growth incubated for 72 hrs by MTT assay; type: functional, cell-based; conditions: MIA PaCa-2, 72 h
[4] = Tmax in NOD-SCID mouse at 15 mg/kg, ip administered as single dose and measured upto 48 hrs by HPLC/MS analysis; type: ADME, organism-based; conditions: in vivo
Homo sapiens [5] = species: Homo sapiens; assay: Inhibition of GDP-bound human KRAS 149stop G12C mutant expressed in Escherichia coli BL21 Rosetta cells assessed as inhibition of SOS1 mediated nucleotide exchange at 250 uM measured after 24 hrs by fluorescence based analysis
NCI-H1792 [6] = assay: (§1) Antitumor activity against human NCI-H1792 cells harboring KRAS G12C mutant xenografted in immunodeficient NOD-SCID mouse assessed as reduction in tumor growth at 5 to 30 mg/kg, ip administered for 5 times at 5 mg/kg in first week followed by administration at 20 mg/kg 5 times in second week and further administered 30 mg/kg 3 times in third week measured 17 days post treatment initiation and 35 days post tumor transplantation by digital caliper based analysis relative to control; type: functional; parameters: scale not given: the % may be the effect or the level left; conditions: dose 5-30 mg/kg, time 17 day
[7] = Cmax in NOD-SCID mouse at 15 mg/kg, ip administered as single dose and measured upto 48 hrs by HPLC/MS analysis; type: ADME, organism-based; parameters: time < 48 hrs, dose 15 mg/kg, route ip; conditions: in vivo
[8] = AUCt in NOD-SCID mouse at 15 mg/kg, ip administered as single dose and measured upto 48 hrs by HPLC/MS analysis; type: ADME, organism-based; parameters: dose 15 mg/kg, time < 48 hrs, route ip; conditions: in vivo
[9] = Clearance in NOD-SCID mouse at 15 mg/kg, ip administered as single dose and measured upto 48 hrs by HPLC/MS analysis; type: ADME, organism-based; conditions: in vivo
NCI-H1792 [10] = assay: Antiproliferative activity against human NCI-H1792 cells harboring heterozygous KRAS G12C mutant assessed as inhibition of cell growth incubated for 72 hrs by MTT assay; type: functional, cell-based; conditions: NCI-H1792, 72 h
[11] = (§2) Toxicity in immunodeficient NOD-SCID mouse xenografted with human LCLC-103H cells harboring wild type KRAS assessed as body weight at 5 to 30 mg/kg, ip administered for 5 times at 5 mg/kg in first week followed by administration at 20 mg/kg 5 times in second week and further administered 30 mg/kg 3 times in third week measured 17 days post treatment initiation and 35 days post tumor transplantation (reference value: 2.6 g); type: organism-based; conditions: in vivo, 408 h, dose 5-30 mg/kg, time 17 day
LCLC-103H cell line [12] = assay: as §1, with “LCLC-103H” for “NCI-H1792”, “harboring wild type” for “harboring”, “KRAS” for “KRAS G12C mutant”, “as” for “as reduction in”, “volume” for “growth”, “analysis” for “analysis relative to control”; type: functional; conditions: dose 5-30 mg/kg, time 17 day
[13] = as §2, with “NCI-H1792” for “LCLC-103H”, “harboring” for “harboring wild type”, “KRAS G12C mutant” for “KRAS”, “6.6” for “2.6”; type: organism-based; conditions: in vivo, 408 h, dose 5-30 mg/kg, time 17 day
NCI-H1792 [14] = assay: Antiproliferative activity against human NCI-H1792 cells harboring KRAS G12C mutant assessed as cell viability at 25 uM incubated for 72 hrs by MTT assay relative to control; type: functional; conditions: read-out: Activity
[15] = Antiproliferative activity against human HCA-7 cells harboring wild type KRAS assessed as inhibition of cell growth incubated for 72 hrs by MTT assay; type: functional, cell-based, HCA7; conditions: HCA-7, 72 h
Homo sapiens [16] = species: Homo sapiens; assay: Inhibition of GDP-bound human KRAS 149stop G12C mutant expressed in Escherichia coli BL21 Rosetta cells assessed as inhibition of EDTA mediated nucleotide exchange at 250 uM measured after 24 hrs by fluorescence based analysis
[17] = Cytotoxicity against HUVEC cells immortalized with TERT assessed as inhibition of cell growth incubated for 72 hrs by MTT assay; type: toxicity, cell-based; conditions: human
[18] = Half life in NOD-SCID mouse at 15 mg/kg, ip administered as single dose and measured upto 48 hrs by HPLC/MS analysis; type: ADME, organism-based; conditions: in vivo
[19] = Cytotoxicity against human MRC5 cells assessed as inhibition of cell growth incubated for 72 hrs by MTT assay; type: toxicity, cell-based
SW480 = assay: Antiproliferative activity against human SW480 cells harboring homozygous KRAS G12V mutant assessed as inhibition of cell growth incubated for 72 hrs by MTT assay; type: functional, cell-based; conditions: SW480, 72 h
[20] = system: GTPase KRas (Homo sapiens), P01116 [G12C]; assay: Covalent binding affinity to GDP-bound human KRAS-4B G12C mutant (1 to 169 residues) expressed in Escherichia coli BL21 Rosetta cells at 200 uM measured after 15 mins by Ellman's assay
BXPC-3 = assay: Antiproliferative activity against human BXPC-3 cells harboring wild type KRAS assessed as inhibition of cell growth incubated for 72 hrs by MTT assay; type: functional, cell-based; conditions: BXPC-3, 72 h
[21] = system: GTPase KRas (Homo sapiens), P01116 [G12C]; assay: Reversible binding affinity to GDP-bound human KRAS-4B G12C mutant (1 to 169 residues) expressed in Escherichia coli BL21 Rosetta cells by intact LCMS analysis
A549 = assay: Antiproliferative activity against human A549 cells harboring homozygous KRAS G12S mutant assessed as inhibition of cell growth incubated for 72 hrs by MTT assay; type: functional, cell-based; conditions: A549, 72 h
[22] = system: GTPase KRas (Homo sapiens), P01116 [G12C]; assay: Covalent binding affinity to GDP-bound human KRAS-4B G12C mutant (1 to 169 residues) expressed in Escherichia coli BL21 Rosetta cells at 200 uM measured after 4 hrs by Ellman's assay
[23] = system: GTPase KRas (Homo sapiens), P01116 [G12C]; assay: Covalent binding affinity to GDP-bound human KRAS-4B G12C mutant (1 to 169 residues) expressed in Escherichia coli BL21 Rosetta cells assessed as reduction in free Cys residues at 200 uM measured after 1 hr by Ellman's assay
SW1573 = assay: Antiproliferative activity against human SW1573 cells harboring homozygous KRAS G12C mutant assessed as inhibition of cell growth incubated for 72 hrs by MTT assay; type: functional, cell-based; conditions: SW1573, 72 h
[24] = system: GTPase KRas (Homo sapiens), P01116 [G12C]; assay: Binding affinity to Cys118 residue of GDP bound human KRAS-4B G12C mutant (1 to 169 residues) expressed in Escherichia coli BL21 Rosetta cells at 150 to 500 uM measured after 96 hrs by 1H-15N HSQC NMR spectral analysis; conditions: dose 150-500 µM
[25] = system: GTPase KRas (Homo sapiens), P01116 [G12C]; assay: Binding affinity to Cys51 residue of GDP bound human KRAS-4B G12C mutant (1 to 169 residues) expressed in Escherichia coli BL21 Rosetta cells at 150 to 500 uM measured after 96 hrs by 1H-15N HSQC NMR spectral analysis; conditions: dose 150-500 µM
PANC-1 = assay: Antiproliferative activity against human PANC-1 cells harboring heterozygous KRAS G12D mutant assessed as inhibition of cell growth incubated for 72 hrs by MTT assay; type: functional, cell-based; conditions: PANC-1, 72 h
[26] = system: GTPase KRas (Homo sapiens), P01116 [G12C]; assay: Binding affinity to Cys80 residue of GDP bound human KRAS-4B G12C mutant (1 to 169 residues) expressed in Escherichia coli BL21 Rosetta cells at 150 to 500 uM measured after 96 hrs by 1H-15N HSQC NMR spectral analysis; conditions: dose 150-500 µM
[27] = system: GTPase KRas (Homo sapiens), P01116 [G12C]; assay: Binding affinity to Cys12 residue of GDP bound human KRAS-4B G12C mutant (1 to 169 residues) expressed in Escherichia coli BL21 Rosetta cells at 150 to 500 uM measured after 96 hrs by 1H-15N HSQC NMR spectral analysis; conditions: dose 150-500 µM
LCLC-103H cell line [28] = assay: Antiproliferative activity against human LCLC-103H cells harboring wild type KRAS assessed as inhibition of cell growth incubated for 72 hrs by MTT assay; type: functional, cell-based
[29] = as §2, with “NCI-H1792” for “LCLC-103H”, “harboring” for “harboring wild type”, “KRAS G12C mutant” for “KRAS”, “20” for “17”, “38” for “35”, “6.6” for “2.6”; type: organism-based; conditions: in vivo, 480 h, dose 5-30 mg/kg, time 20 day

IC50 (NCI-H358)	Vd [3]	IC50 (MIA PaCa-2)	Tmax [4]	Cmax [7]	AUC(0-t) at 48 h [8]	CL/F [9]	IC50 (NCI-H1792 [10])	half-life [18]	SMILES	IC50 at 72 h [1]	Activity (NCI-H1792 [2])	inhibition (Homo sapiens [5])	Activity (NCI-H1792 [6])	Activity [11]	Activity (LCLC-103H cell line [12])	Activity [13]	viability at 25 µM (NCI-H1792 [14])	IC50 [15]	inhibition (Homo sapiens [16])	IC50 at 72 h [17]	also measured
0.3 µM	363 mL	0.5 µM	0.25 h	5850 ng/mL	3740 ng·h/mL	1.37 mL/min	10.9 µM	2.9 h	C=CC(=O)N1CCN(c2ncnc3c(F)c(-c4c(O)cccc4F)c(Cl)cc23)CC1	52.2 µM	Active	Active	17.9%	0.8 g	7.9 mm3	3.7 g	< 50%	23.4 µM	Active	0.7 µM	–
12.3 µM	63.6 mL	24.5 µM	0.25 h	27400 ng/mL	28300 ng·h/mL	0.183 mL/min	11.4 µM	4 h	O=Cc1c(O)ccc2ccccc12	66.2 µM	Active	Active	32.5%	0 g	9.2 mm3	5.2 g	< 50%	26.2 µM	Active	10.8 µM	IC50 at 72 h [19]: 25 µM; IC50 (SW480): 44.5 µM; Activity [20]: Active; IC50 (BXPC-3): 46.9 µM; Activity [21]: Active; IC50 (A549): 43.3 µM; Activity [22]: 100%; Activity [23]: Active; IC50 (SW1573): 24.2 µM; Activity [24]: inactive; Activity [25]: inactive; IC50 (PANC-1): 27.6 µM; Activity [26]: inactive; Activity [27]: Active; IC50 (LCLC-103H cell line [28]): 32.4 µM; Activity [29]: 4.9 g
